Measurements reported in patent US7662778B2, “Histone deacetylase inhibitor and process for producing the same” (Riken, priority 2003, dated 2010).
Read-outs that look alike come from different tables or passages of the source. Each block holds one molecule with its values, some of them ahead of it. Where a SMILES comes first, the peptide text is derived from it. [ ]: non-standard residue; d: D form. The star is where a group is joined. hLys(Nζ-OH,Nζ-For) = N[C@@H](CCCCCN(O)C=O)C(=O)O; Asu = N[C@@H](CCCCCC(=O)O)C(=O)O; dPip = O=C(O)[C@H]1CCCCN1; X1 = Oc1ccccc1N*; X2 = Nc1ccccc1O*; X3 = Sc1ccccc1N*

Tests used:
[1] = tested on: human wild-type p21 promoter; assay: p21 promoter-inducing activity (luciferase) in MFLL-9 cells; type: cell-based
Description: The HDAC inhibitory activity in vivo was measured using p21 promoter-inducing activity as an index, as shown below. The MFLL-9 cells employed for the experiments stably maintained fusion genes of human wild-type p21 promoter and luciferase (Dr. B. Vogelstaein). Using phenol red-free DMEM medium comprising 10% FBS, cultivation was carried out in a steam-saturated incubator at 37° C. with 5% carbon dioxide. The MFLL-9 cells were plated at a density of 85,000 cells/well on a 96-well microtiter plate, each in 99 μl of the above-mentioned medium. These were then cultivated for six hours. One μl of test compound solution was added to each well, which was then cultured for another 18 hours.
The intensity of luminescence caused by the product of the enzyme reaction for intracellular luciferase expression was measured using Luc Lite (Packard BioScience Company).
HDAC inhibitory activity in an in vivo system was measured using p21 promoter induction as index. The experimental method followed that of Example 11.

[2] = biological target: T1, mouse HDAC6 (Mus musculus, UniProt Q9Z2V5); assay: HDAC inhibitory activity in vitro (coumarin-labeled acetylated histone peptide), HDAC6; type: biochemical
T1 construct: HA; made in house; host or cells: 293T cells, transient transfection; anti-HA immunoprecipitation and HA peptide elution
T1 sequence (Q9Z2V5 1-1149): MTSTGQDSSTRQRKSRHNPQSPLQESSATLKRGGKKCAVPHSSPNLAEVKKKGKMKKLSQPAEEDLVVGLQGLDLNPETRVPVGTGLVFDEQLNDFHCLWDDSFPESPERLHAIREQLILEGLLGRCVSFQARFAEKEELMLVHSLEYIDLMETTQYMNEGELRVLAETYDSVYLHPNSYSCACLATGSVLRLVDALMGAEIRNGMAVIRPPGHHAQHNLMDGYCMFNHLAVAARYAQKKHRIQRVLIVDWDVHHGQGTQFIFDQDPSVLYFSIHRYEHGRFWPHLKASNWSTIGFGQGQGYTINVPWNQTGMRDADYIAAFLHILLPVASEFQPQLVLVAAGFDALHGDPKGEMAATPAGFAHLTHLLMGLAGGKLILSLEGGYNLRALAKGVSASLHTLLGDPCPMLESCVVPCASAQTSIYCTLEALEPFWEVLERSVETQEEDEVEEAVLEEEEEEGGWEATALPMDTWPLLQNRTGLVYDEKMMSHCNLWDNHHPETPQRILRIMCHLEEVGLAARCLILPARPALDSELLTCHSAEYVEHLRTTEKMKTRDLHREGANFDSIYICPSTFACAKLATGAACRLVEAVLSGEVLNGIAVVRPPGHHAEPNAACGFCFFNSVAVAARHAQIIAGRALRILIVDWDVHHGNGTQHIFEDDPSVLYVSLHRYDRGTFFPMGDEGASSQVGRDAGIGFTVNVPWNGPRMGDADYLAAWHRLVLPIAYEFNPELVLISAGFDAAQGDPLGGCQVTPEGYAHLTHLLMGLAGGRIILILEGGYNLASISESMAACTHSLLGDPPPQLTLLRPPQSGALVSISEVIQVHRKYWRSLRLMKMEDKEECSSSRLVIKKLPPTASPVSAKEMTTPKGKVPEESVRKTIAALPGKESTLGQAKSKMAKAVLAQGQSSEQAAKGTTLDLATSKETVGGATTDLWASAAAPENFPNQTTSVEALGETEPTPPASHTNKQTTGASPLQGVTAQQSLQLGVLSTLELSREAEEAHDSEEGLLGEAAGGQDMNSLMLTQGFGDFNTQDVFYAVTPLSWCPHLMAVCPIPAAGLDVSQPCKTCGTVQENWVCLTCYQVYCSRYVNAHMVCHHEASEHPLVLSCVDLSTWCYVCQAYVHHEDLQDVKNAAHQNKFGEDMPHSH

[3] = biological target: T2, human HDAC4 (Homo sapiens, UniProt P56524); assay: HDAC inhibitory activity in vitro (coumarin-labeled acetylated histone peptide), HDAC4; type: biochemical
T2 construct: FLAG; made in house; host or cells: 293T cells, transient transfection; anti-FLAG immunoprecipitation and FLAG peptide elution
T2 sequence (P56524 whole entry): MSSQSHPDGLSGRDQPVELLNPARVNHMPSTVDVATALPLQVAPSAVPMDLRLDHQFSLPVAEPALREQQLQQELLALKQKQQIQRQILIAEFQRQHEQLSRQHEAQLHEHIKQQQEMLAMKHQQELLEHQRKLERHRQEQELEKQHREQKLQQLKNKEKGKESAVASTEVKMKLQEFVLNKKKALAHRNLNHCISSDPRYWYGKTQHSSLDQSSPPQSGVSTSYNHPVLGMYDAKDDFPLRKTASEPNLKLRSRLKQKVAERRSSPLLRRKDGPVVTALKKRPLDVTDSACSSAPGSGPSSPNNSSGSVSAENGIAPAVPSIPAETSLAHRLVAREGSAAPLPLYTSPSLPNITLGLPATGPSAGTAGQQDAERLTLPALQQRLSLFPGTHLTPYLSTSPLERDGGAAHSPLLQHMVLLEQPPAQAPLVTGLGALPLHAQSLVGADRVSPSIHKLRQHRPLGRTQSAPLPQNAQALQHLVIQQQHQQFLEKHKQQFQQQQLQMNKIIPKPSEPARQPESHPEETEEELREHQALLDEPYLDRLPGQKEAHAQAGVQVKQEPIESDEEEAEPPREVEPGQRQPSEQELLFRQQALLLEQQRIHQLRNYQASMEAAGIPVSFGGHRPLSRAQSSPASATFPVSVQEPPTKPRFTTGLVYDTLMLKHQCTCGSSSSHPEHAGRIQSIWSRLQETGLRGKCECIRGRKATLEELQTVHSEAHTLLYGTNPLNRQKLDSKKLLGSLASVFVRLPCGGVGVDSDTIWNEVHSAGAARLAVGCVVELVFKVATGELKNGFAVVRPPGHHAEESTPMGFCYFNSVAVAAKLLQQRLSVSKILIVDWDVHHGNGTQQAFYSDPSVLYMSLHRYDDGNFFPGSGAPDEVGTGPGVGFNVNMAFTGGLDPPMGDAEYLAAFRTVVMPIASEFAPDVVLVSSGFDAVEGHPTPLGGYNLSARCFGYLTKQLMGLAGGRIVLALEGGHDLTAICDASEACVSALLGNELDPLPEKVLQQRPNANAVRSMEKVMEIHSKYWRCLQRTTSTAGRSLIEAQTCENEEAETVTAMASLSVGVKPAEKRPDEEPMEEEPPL

[4] = biological target: T3, human HDAC1 (Homo sapiens, UniProt Q13547); assay: HDAC inhibitory activity in vitro (coumarin-labeled acetylated histone peptide), HDAC1; type: biochemical
T3 construct: FLAG; made in house; host or cells: 293T cells, transient transfection; anti-FLAG immunoprecipitation and FLAG peptide elution
T3 sequence (Q13547 whole entry): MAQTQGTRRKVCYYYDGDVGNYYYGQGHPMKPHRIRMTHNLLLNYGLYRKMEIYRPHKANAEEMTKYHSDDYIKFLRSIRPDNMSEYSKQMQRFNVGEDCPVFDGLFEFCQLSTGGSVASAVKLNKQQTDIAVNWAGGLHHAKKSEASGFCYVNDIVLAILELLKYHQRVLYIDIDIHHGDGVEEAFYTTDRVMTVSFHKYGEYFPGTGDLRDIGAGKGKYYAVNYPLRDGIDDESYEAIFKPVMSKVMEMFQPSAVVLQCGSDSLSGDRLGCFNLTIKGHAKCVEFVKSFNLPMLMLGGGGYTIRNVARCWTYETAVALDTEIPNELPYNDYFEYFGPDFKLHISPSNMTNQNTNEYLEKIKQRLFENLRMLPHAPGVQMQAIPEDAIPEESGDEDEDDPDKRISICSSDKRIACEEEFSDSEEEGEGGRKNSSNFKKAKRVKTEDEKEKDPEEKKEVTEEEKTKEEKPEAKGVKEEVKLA

[5] = amide bond, 12-membered ring, HATU/DIEA, DMF, 25.0 °C
[6] = Table 1, MFLL-9 cells, 18 hours, concentration corresponding to 50% of the maximum active value for TSA
[7] = Table 3, method of Example 11, 50% of the maximum activity observed in TSA
[8] = Table 1, 37° C., 30 minutes, read-out: IC50 (μM) HDAC6
[9] = Table 1, 37° C., 30 minutes, read-out: IC50 (μM) HDAC4
[10] = Table 1, 37° C., 30 minutes, read-out: IC50 (μM) HDAC1
[11] = Table 3, method of Example 11, read-out: IC50(μM) HDAC4
[12] = Table 3, method of Example 11, read-out: IC50(μM) HDAC1

Compound: CC[C@H](C)[C@@H]1NC(=O)[C@@H](Cc2ccc(OC)cc2)NC(=O)[C@H](CCCCCS(C)(=O)=O)NC(=O)[C@H]2CCCN2C1=O [SO2Me]
EC50 [1, 6]: > 100 µM

Compound: CC[C@H](C)[C@@H]1NC(=O)[C@@H](Cc2ccc(OC)cc2)NC(=O)[C@H](CCCCCC(=O)Nc2ccccc2S)NC(=O)[C@H]2CCCN2C1=O [OATP, cyclo(L-Asu(OATP)-D-Tyr(Me)-L-Ile-D-Pro)] (cyclo([Asu](X3)[dY](Me)I[dP]))
IC50 [2]: 408 µM
EC50 [1, 7]: > 100 µM
IC50 [3]: 0.23 µM
IC50 [4]: 2.03 µM

Compound: CC[C@H](C)[C@@H]1NC(=O)[C@@H](Cc2ccc(OC)cc2)NC(=O)[C@H](CCCCCN(C=O)OCc2ccccc2)NC(=O)[C@@H]2CCCN2C1=O [cyclo(-L-Hly(For, OBzl)-D-Tyr(Me)-L-Ile-L-Pro-)]
ring closure, isolated yield ([5]; from H-dTyr(Me)-Ile-Pro-Hly(For,OBzl)-OH, 0.68 mM): 44%

Compound: CC[C@H](C)[C@@H]1NC(=O)[C@@H](Cc2ccc(OC)cc2)NC(=O)[C@H](CCCCCN(C=O)OCc2ccccc2)NC(=O)[C@H]2CCCCN2C1=O [cyclo(-L-Hly(For, OBzl)-D-Tyr(Me)-L-Ile-D-Pip-)]
ring closure, isolated yield ([5]; from H-dTyr(Me)-Ile-dPip-Hly(For,OBzl)-OH?, 0.39 mM): 28%

Compound: CC[C@H](C)[C@@H]1NC(=O)[C@@H](Cc2ccc(OC)cc2)NC(=O)[C@H](CCCCN(C=O)OCc2ccccc2)NC(=O)[C@@H]2CCCCN2C1=O [cyclo(-L-Lys(For, OBzl)-D-Tyr(Me)-L-Ile-L-Pip-)]
ring closure, isolated yield ([5]; from H-dTyr(Me)-Ile-Pip-Lys(For,OBzl)-OH?, 0.4 mM): 24%

Compound: CC[C@H](C)[C@@H]1NC(=O)[C@@H](Cc2ccc(OC)cc2)NC(=O)[C@H](CCCCCC(=O)Nc2ccccc2O)NC(=O)[C@H]2CCCN2C1=O [OAPOH, cyclo(L-Asu(OAPOH)-D-Tyr(Me)-L-Ile-D-Pro)] (cyclo([Asu](X1)[dY](Me)I[dP]))
EC50 [1, 7]: 55.1 µM
IC50 [3, 11]: 0.23 µM
IC50 [4, 12]: 1.22 µM

Compound: CC[C@H](C)[C@@H]1NC(=O)[C@@H](Cc2ccc(OC)cc2)NC(=O)[C@H](CCCCCC(=O)Oc2ccccc2N)NC(=O)[C@H]2CCCN2C1=O [OAPNH, cyclo(L-Asu(OAPNH)-D-Tyr(Me)-L-Ile-D-Pro)] (cyclo([Asu](X2)[dY](Me)I[dP]))
IC50 ([2]; Table 3, method of Example 11, read-out: IC50(μM) HDAC6): 441 µM
EC50 [1, 7]: 12.9 µM
IC50 [3, 11]: 0.24 µM
IC50 [4, 12]: 0.4 µM

Now from value to molecule:

IC50 [2, 8]: 0.029 µM
IC50 [3, 9]: 0.09 µM
Compound: CC[C@H](C)[C@@H]1NC(=O)[C@@H](Cc2ccc(OC)cc2)NC(=O)[C@H](CCCCCN(O)C=O)NC(=O)[C@@H]2CCCN2C1=O [N(OH)COH Cyclo(X-y(Me)-I-P), n = 5] (cyclo([hLys(Nζ-OH,Nζ-For)][dY](Me)IP))

IC50 [2, 8]: 8.19 µM
IC50 [3, 9]: 17.5 µM
IC50 [4, 10]: 23.9 µM
Compound: CC[C@H](C)[C@@H]1NC(=O)[C@@H](Cc2ccc(OC)cc2)NC(=O)[C@H](CCCCN(O)C=O)NC(=O)[C@@H]2CCCCN2C1=O [N(OH)COH Cyclo(X-y(Me)-I-Pip), n = 4]

IC50 [2]: 0.18 µM
EC50 [1, 6]: 3.73 µM
IC50 [3]: 0.13 µM
IC50 [4]: 0.067 µM
Compound: CC[C@H](C)[C@@H]1NC(=O)[C@@H](Cc2ccc(OC)cc2)NC(=O)[C@H](CCCCCN(O)C=O)NC(=O)[C@H]2CCCCN2C1=O [N(OH)COH Cyclo(X-y(Me)-I-pip), n = 5, cyclo(-L-Hly(For, OH)-D-Tyr(Me)-L-Ile-D-Pip-)] (cyclo(I[dPip][hLys(Nζ-OH,Nζ-For)][dY](Me)))

IC50 [2, 8]: > 500 µM
EC50 [1, 6]: > 100 µM
IC50 [3, 9]: 5.69 µM
IC50 [4, 10]: 4.07 µM
Compound: CC[C@H](C)[C@@H]1NC(=O)[C@@H](Cc2ccc(OC)cc2)NC(=O)[C@H](CCCCCC(=O)O)NC(=O)[C@H]2CCCN2C1=O [COOH, cyclo(L-Asu-D-Tyr(Me)-L-Ile-D-Pro)] (cyclo([Asu][dY](Me)I[dP]))
